What was measured:
SW480 cells [1] = experiment: p-STAT3 / β-CATENIN immunofluorescence and SOCS3 RT-qPCR in SW480 cells; assay type: cell-based, human
Description: d Immunofluorescence staining for β-CATENIN or tyrosine-705 phosphorylated STAT3 in an isogenic pair of SW480 cells grown in the presence of 1 μM AZD1480 (Jak2i) or vehicle. SW480 cells are APC mutant and lack expression of functional APC protein, while SW480^APC cells have been reconstituted to express wild-type APC. Scale bar=20 μm.
g RT-qPCR expression analysis for the STAT3 target gene SOCS3 in SW480 and SW480^APC CRC cells grown for 10 days under colony forming conditions in soft agar in the presence of the indicated treatment. Expression in the vehicle-treated cultures was arbitrarily set as 1. (*p≦0.04; triplicate cultures in each of two repeats).
(§1) SW480 and SW480^APC cells (Faux et al., 2004) were seeded in 2 ml of RPMI media supplemented with 10% FBS and 1% penicillin/streptomycin in 35 mm culture dishes at a density of 2×10^5 cells per dish. Three days later cultures were exposed to AZD1480 (1 μM) for 15 min. Co-immunofluorescence was then performed with antibodies to rabbit phospho-Stat3 (Tyr705, Santa Cruz #9134s, 1:200 dilution) and mouse β-catenin (Transduction Laboratories, 1:400). Colony formation assays of SW480 cells in soft agar were performed as described (Faux et al., 2004) in the presence of either AZD1480, (1 μM), the Stat3 inhibitor S3I-201 (Biovision, 50 μM) or recombinant human IL11 (Genetics Institute, 10 ng/ml). All experiments were performed in triplicates and repeated at least once. Vehicle was methylcellulose.
Gene expression analysis by RT-qPCR was performed using the SybrGreen method (ABI) as described previously (Phesse et al., 2008). Fold change was calculated using the 2^−ΔΔCT method (Livak et al., 2001). Protein expression was analysed by Western blot by transferring SDS-PAGE separated protein lysates to nitrocellulose membrane and blocked either in 5% non-fat milk powder and probed with antibodies detecting p16 (Santa Cruz; #sc-467), Bmi1 (Millipore #[…]), Actin (Sigma; #A2066) or Gapdh (Santa Cruz; #sc-69778). All antibodies were diluted 1:1000 in BSA or non-fat milk powder and incubations were performed overnight.

intestinal tumours [2] = experiment: Treatment of ApcMin mice with established intestinal tumours; assay type: in vivo; settings: Apc^Min mice treated daily 30 mg/kg from 6 to 12 weeks of age; increased in vehicle cohort
From the text: (§2) Hematoxilin and Eosin-stained sections were scanned using an Aperio ScanScope XT (Aperio, USA) pathology slide scanner with a 20x PlanApo NA0.6 objective and areas of interest were extracted using Aperio ImageScope software v11.1.2.760. The area of individual tumors was outlined using MetaMorph v7.7.7 and standardized against the entire length of the colon section as described (Barker et al., 2009).

intestinal epithelium = experiment: Homeostatic turnover of the intestinal epithelium and body weight in treated mice; assay type: in vivo
Description: a qRT-PCR expression analysis for Wnt target genes from RNA extracted from AZD1480 or vehicle-treated BALB/c-nude hosts used for the xenograft experiments (*p<0.04, n≧5 mice). b Immunohistochemical analysis of cell proliferation (BrdU), goblet cells (Periodic Acid/Schiff, PAS) and Paneth cells ([…]) or vehicle Control. Scale bar 50 μm. c Weight of BALB/c-nude mice treated with either vehicle or AZD1480 (30 mg/kg, daily) between days 5 and 21 of xenograft experiment (n=8).

DLD1 cells = experiment: DLD1 tumor xenografts; assay type: in vivo, mice (human DLD1 xenograft); settings: DLD1 (high Wnt signaling), BALB/c nude mice, daily gavage 30 mg/kg from day 7
Description: c, d Tumour xenograft burden in BALB/c nude mice injected s.c. with DLD1 cells or RKO cells in PBS and receiving daily gavage with AZD1480 (30 mg/kg) or vehicle starting on the 7th day after cell inoculation. (*p≦0.0004; two sided t-test; n=8).

SW480^APC cells = experiment: Soft agar colony growth assay, SW480APC; assay type: cell-based, human; settings: 10 days, AZD1480 1 μM, S3I-201 50 μM, IL11 10 ng/ml
Description: (§3) e Photograph of SW480 and SW480^APC CRC cells grown for 10 days under colony forming conditions in soft agar in the presence of vehicle or 1 μM of Jak2 inhibitor AZD1480 (Jak2i) (Scale bar=200 μm)
(§4) f Colony forming capacity of an isogenic pair of SW480 cells scored 10 days after the indicated treatment. (*p≦0.04; triplicate cultures and repeated).
as §1

intestinal tumours [3] = experiment: Intestinal tumour burden after tamoxifen-induced conditional Apc deletion in Lgr5CreERT2;Apcfl/fl mice; assay type: in vivo; settings: tamoxifen-treated Lgr5^CreERT2;Apc^fl/fl mice, prophylactic daily AZD1480 30 mg/kg, 5 weeks
Description: e Quantification of intestinal tumour burden of mice using the Metamorph analysis tool (Barker et al., 2009) after tamoxifen-induced conditional Apc deletion in adult Lgr5^CreERT2;Apc^fl/fl mice that also received daily administration of AZD1480 (30 mg/kg) or vehicle during this time. (*p≦0.04; n=3 mice).
d Intestinal tumour burden 5 weeks after tamoxifen-induced conditional Apc deletion in adult Lgr5^CreERT2;Apc^fl/fl mice that also received daily administration of AZD1480 (Jak2i; 30 mg/kg) or vehicle during this time. Higher magnifications of the boxed areas are provided and arrows point to tubular adenomas whilst arrowheads point to micro-adenomas. Scale bars=1 mm.
10 week old Lgr5CreERT2;Apcfl/fl mice received four i.p injections with tamoxifen (10 mg/ml; 300 ul, 200 ul, 200 ul, 200 ul) over four consecutive days. Three days after the last injection, mice received daily oral gavages with either vehicle (tap water, pH 2.0) or CYT387 (30 mg/kg) for four weeks. Regime was 5 days treatment followed by 2 days off treatment.
as §2

SW480 cells [4] = experiment: Soft agar colony growth assay, SW480; assay type: cell-based, human; settings: SW480, 10 days; AZD1480 1 μM, S3I-201 50 μM, IL11 10 ng/ml
Description: as §3, §4, §1

[5] = mice treated for 3 weeks, 30 mg/kg daily, vs vehicle

Structure (SMILES): Cc1cc(Nc2nc(N[C@@H](C)c3ncc(F)cn3)ncc2Cl)n[nH]1 [AZD1480]
- accumulation of nuclear β-CATENIN (SW480 cells [1]; APC-deficient SW480, 1 μM AZD1480): did not diminish
- accumulation of activated (phosphorylated) p-STAT3 (SW480 cells [1]; SW480, 1 μM AZD1480): reduced accumulation
- SOCS3 expression (SW480 cells [1]; SW480, RT-qPCR, AZD1480 1 μM, IL11 10 ng/ml): reduced SOCS3 expression
- total tumour area (intestinal tumours [2]): remained remarkably constant
- tumour number (intestinal tumours [2]): remained remarkably constant
- body weight (intestinal epithelium; BALB/c-nude mice, 30 mg/kg daily, days 5 to 21 of xenograft experiment): did not affect body weight
- intestinal expression of prototypical Wnt target genes (intestinal epithelium; BALB/c-nude xenograft hosts, qRT-PCR): remained unaffected
- proportion of BrDU-positive proliferating intestinal epithelium cells (intestinal epithelium; [5]): no differences
- proportion of PAS-staining goblet cells (intestinal epithelium; [5]): no differences
- proportion of lysozyme-positive Paneth cells (intestinal epithelium; [5]): no differences
- xenograft growth (DLD1 cells): sufficient to reduce xenograft growth
- colony formation in soft agar (SW480^APC cells): did not affect colony formation
- growth and de novo tumour formation (intestinal tumours [3]): profoundly reduced
- colony formation in soft agar (SW480 cells [4]): strongly impaired

— US20160045498A1, “METHODS OF TREATING DISEASES CHARACTERIZED BY EXCESSIVE WNT SIGNALLING” (THE WALTER AND ELIZA HALL INSTITUTE OF MEDICAL RESEARCH, priority 2013, published 2016)
